Measurements from patent US20230374025A1, “FGFR INHIBITOR COMPOUND AND USE THEREOF” (SHENZHEN KANGSU PHARMACEUTICAL TECHNOLOGY CO., LTD., priority 2021, published 2023).

Columns and labels:
Assay type in all cases: biochemical
FGFR1 V561M = biological target: T1, FGFR1 V561M (Homo sapiens, UniProt P11362, V561M); assay: Assay I: inhibitory activity against FGFR mutants (HTRF KinEASE-TK); details: ATP 5 μM, substrate TK 1 μM
T1 construct: purchased Signalchem F04-13G
Procedure: (§1) Assay I: Determination of Inhibitory Activity Against FGFR Mutants
(§2) 1. Reagents and Equipment
(§3) 2.1 Preparation of 1× Kinase Reaction Buffer:
(§4) 1× Kinase reaction buffer was formulated with 1× volume of 5× kinase reaction buffer and 4× volume of water; 5 mM MgCl2; and 1 mM DTT.
(§5) 2.3 Screening of Compounds:
(§6) 1. Diluting a compound 4-fold in a dilution plate with DMSO, with a starting compound concentration of 2 mM.
(§7) 2. Diluting the compound 40-fold into 1× kinase reaction buffer and shaking it on a shaker for 20 minutes.
(§8) 5. Adding 1 μl of the compound diluted in buffer to each well, sealing the plate with a sealing membrane and centrifuging the plate at 1000 g for 30 seconds and leaving it at room temperature for 10 minutes.
(§9) 6. Formulating 2.5×TK-substrate-biotin and ATP mixture with 1× enzyme reaction buffer and adding 2 μl of K-substrate-biotin/ATP mixture to the reaction plate.
(§10) 7. Sealing the plate with a sealing membrane and centrifuging the plate at 1000 g for 30 seconds and allowing it to react at room temperature for 50 minutes.
(§11) 8. Formulating 4× Sa-XL 665 (250 nM) with HTRF assay buffer.
(§12) 9. Adding 5 μl Sa-XL 665 and 5 μl TK-Antibody-Cryptate to each well, centrifuging it at 1000 g for 30 seconds, and allowing it to react for 1 hour at room temperature.
(§13) 10. Reading fluorescence signals at 615 nm (Cryptate) and 665 nm (XL665) with Biotek.
(§14) 3.1 Calculation of the ratio for each well: the ratio was calculated as 665/615 nm.
(§15) 3.3 Calculation of IC50 and plotting of inhibition curves for the compounds.
(§16) The IC50 (half inhibition concentration) of a compound was obtained using the following non-linear fitting equation, wherein data analysis was performed using Graphpad 6.0 software.
(§17) Y=Bottom+(Top−Bottom)/(1+10^((Log IC50−X)*Hill Slope)) • X: log value of compound concentration; and Y: inhibition rate (% inh)
(§18) 3.4 Validation of Results
(§19) Data were exported from Envision and analyzed manually. The ratios were converted to inhibition rates and IC50 was calculated by Prism GraphPad 6.0 from the inhibition rates. IC50 was calculated again by the ratios to verify accuracy of the results.

FGFR2 V564F = biological target: T2, FGFR2 V564F (Homo sapiens, UniProt P21802, V564F); assay: as above; details: ATP 10 μM, substrate TK 1 μM
T2 construct: purchased Signalchem F05-12FG
Procedure: as §1, §2, §3, §4, §5, §6, §7, §8, §9, §10, §11, §12, §13, §14, §15, §16, §17, §18, §19

FGFR3 V555M = biological target: T3, FGFR3 V555M (Homo sapiens, UniProt P22607, V555M); assay: as above; details: ATP 20 μM, substrate TK 1 μM
T3 construct: purchased Signalchem F06-12GG
Procedure: as §1, §2, §3, §4, §5, §6, §7, §8, §9, §10, §11, §12, §13, §14, §15, §16, §17, §18, §19

VEGFR2 = biological target: T4, VEGFR2 (Homo sapiens, UniProt P35968); assay: Assay I: VEGFR2 kinase inhibition (HTRF KinEASE-TK); details: ATP 5 μM, substrate TK 1 μM
T4 construct: purchased Carna 08-191
Procedure: as §1, §2, §3, §4, §5, §6, §7
3. Formulating 2×FGFR1 V561M/FGFR2 V564F/FGFR3 K650E/VEGFR2 with 1× of enzyme reaction buffer.
4. Adding 2 μl FGFR1 V561M/FGFR2 V564F/FGFR3 K650E/VEGFR2 kinase (formulated in step 3) to each well of the reaction plate.
as §8, §9, §10, §11, §12, §13, §14, §15, §16, §17, §18, §19
Positive control IC50 was within 3 times of the average value

T1 sequence (P11362 22-822 V561M): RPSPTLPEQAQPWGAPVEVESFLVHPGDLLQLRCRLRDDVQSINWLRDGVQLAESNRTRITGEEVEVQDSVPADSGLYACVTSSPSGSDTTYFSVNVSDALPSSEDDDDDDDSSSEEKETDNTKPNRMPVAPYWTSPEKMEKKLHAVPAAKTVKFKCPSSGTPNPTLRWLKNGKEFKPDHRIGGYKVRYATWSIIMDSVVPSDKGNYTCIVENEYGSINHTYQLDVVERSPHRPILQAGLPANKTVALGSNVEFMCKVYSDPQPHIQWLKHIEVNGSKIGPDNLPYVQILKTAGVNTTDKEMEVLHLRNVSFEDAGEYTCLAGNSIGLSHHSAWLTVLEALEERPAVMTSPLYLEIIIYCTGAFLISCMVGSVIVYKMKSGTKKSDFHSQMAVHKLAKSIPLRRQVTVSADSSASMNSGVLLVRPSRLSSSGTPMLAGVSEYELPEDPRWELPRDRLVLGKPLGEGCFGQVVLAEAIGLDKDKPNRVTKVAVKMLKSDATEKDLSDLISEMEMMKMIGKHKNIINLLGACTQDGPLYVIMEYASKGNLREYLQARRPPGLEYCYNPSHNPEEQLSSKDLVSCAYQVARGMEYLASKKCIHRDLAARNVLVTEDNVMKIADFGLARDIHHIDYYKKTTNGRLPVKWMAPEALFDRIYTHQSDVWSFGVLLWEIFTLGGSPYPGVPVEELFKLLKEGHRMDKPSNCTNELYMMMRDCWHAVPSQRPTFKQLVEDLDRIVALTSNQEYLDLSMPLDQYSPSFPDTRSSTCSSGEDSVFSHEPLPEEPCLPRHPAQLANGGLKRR
T3 sequence (P22607 397-806 V555M limits assumed): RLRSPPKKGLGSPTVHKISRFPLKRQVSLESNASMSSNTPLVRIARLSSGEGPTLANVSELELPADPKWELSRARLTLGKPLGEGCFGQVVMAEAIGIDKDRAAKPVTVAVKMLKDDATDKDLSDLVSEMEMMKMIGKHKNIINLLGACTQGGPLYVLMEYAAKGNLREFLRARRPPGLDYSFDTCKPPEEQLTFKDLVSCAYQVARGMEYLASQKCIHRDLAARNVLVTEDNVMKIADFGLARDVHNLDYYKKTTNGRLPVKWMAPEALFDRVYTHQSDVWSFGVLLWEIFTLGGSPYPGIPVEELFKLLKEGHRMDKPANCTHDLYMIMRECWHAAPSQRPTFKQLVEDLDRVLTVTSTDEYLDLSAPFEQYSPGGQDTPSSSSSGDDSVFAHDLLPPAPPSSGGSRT
T4 sequence (P35968 20-1356): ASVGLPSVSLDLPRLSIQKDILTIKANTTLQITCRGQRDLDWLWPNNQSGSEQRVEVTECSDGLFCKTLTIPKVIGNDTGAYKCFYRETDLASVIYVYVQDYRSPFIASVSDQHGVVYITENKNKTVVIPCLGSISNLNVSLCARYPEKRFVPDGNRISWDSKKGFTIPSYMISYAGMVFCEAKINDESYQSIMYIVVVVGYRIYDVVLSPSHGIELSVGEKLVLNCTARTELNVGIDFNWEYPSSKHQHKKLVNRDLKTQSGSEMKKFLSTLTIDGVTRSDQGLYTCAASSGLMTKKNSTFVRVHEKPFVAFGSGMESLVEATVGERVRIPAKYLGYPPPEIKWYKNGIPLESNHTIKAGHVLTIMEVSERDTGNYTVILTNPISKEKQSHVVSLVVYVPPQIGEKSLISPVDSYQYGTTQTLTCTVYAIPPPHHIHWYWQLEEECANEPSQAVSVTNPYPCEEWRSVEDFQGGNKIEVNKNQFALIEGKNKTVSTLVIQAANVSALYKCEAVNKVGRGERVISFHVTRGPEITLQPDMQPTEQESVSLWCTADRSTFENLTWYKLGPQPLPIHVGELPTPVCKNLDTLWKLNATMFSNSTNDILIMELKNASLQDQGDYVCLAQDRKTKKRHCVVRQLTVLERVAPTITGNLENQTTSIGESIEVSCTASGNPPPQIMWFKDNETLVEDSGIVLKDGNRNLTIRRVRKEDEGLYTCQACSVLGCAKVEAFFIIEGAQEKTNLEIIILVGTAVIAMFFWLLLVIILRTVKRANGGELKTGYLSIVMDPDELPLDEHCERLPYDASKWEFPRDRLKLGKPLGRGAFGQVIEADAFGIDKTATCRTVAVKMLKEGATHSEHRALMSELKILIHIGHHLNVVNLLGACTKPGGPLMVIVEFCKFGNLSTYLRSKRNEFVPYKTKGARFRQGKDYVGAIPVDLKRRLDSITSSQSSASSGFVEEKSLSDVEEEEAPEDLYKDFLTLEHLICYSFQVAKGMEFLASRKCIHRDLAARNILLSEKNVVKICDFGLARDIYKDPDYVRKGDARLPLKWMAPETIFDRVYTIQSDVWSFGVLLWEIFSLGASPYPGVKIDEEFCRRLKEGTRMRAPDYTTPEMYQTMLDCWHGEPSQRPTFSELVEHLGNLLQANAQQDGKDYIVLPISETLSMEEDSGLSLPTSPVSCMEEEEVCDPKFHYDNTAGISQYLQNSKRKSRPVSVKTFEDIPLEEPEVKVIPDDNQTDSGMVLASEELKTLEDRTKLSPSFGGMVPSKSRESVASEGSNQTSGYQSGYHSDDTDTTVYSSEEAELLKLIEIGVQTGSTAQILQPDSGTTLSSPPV
T2 sequence (P21802 22-821 V564F): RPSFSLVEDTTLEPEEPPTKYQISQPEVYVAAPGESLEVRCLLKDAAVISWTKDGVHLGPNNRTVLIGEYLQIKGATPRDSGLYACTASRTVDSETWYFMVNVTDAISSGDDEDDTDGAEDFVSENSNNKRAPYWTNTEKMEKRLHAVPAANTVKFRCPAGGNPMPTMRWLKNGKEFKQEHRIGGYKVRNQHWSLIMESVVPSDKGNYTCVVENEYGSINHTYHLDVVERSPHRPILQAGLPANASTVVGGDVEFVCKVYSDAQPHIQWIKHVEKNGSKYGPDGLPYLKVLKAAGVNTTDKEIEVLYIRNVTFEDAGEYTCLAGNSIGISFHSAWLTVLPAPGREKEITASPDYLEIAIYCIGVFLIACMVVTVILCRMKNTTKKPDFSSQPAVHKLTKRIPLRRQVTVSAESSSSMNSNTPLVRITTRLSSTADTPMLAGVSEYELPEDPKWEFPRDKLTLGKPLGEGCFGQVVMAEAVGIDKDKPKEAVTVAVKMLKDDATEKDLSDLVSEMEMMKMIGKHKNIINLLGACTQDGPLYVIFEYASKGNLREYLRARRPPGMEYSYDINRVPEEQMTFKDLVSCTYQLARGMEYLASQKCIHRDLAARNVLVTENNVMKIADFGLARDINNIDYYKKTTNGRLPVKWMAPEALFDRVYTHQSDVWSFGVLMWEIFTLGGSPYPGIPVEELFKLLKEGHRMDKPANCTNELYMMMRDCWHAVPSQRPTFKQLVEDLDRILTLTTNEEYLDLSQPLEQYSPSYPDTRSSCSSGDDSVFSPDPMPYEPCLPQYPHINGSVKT

| IC50 (FGFR1 V561M) [nM] | IC50 (FGFR2 V564F) [nM] | IC50 (FGFR3 V555M) [nM] | IC50 (VEGFR2) [nM] | Structure (SMILES) |
| --- | --- | --- | --- | --- |
| 0.97 | 0.66 | 0.64 | 26 | CC(Oc1ccc2[nH]nc(-c3nc4c([nH]3)CN(C3CC(O)C3)C4)c2c1)c1c(Cl)cncc1Cl (centres unmarked) [Compound 21, 3-(2-(5-(1-(3,5-dichloropyridin-4-yl)ethoxy)-1H-indazol-3-yl)-4,6-dihydropyrrolo[3,4-d]imidazol-5(1H)-yl)cyclobutan-1-ol] |
| 0.31 | 0.19 | 0.16 | 17.6 | CC(Oc1ccc2[nH]nc(-c3nc4c([nH]3)CN(C3CCN(C)CC3)CC4)c2c1)c1c(Cl)cncc1Cl (centres unmarked) [Compound 4, 2-(5-(1-(3,5-dichloropyridin-4-yl)ethoxy)-1H-indazol-3-yl)-5-(1-methylpiperidin-4-yl)-4,5,6,7-tetrahydro-3H-imidazo[4,5-c]pyridine] |
| 0.98 | 0.41 | 0.26 | 10 | CC(Oc1ccc2[nH]nc(-c3nc4c([nH]3)CN(C(=O)C3CC3)C4)c2c1)c1c(Cl)cncc1Cl (centres unmarked) [Compound 25, Cyclopropyl (2-(5-(1-(3,5-dichloropyridin-4-yl)ethoxy)-1H-indazol-3-yl)-4,6-dihydropyrrolo[3,4-d]imidazol-5(1H)-yl)ketone] |
| 1.2 | 1.6 | 0.7 | 64 | CC(Oc1ccc2[nH]nc(-c3nc4c([nH]3)CN(S(=O)(=O)C3CC3)C4)c2c1)c1c(Cl)cncc1Cl (centres unmarked) [Compound 29, 3-(5-(Cyclopropylsulfonyl)-1,4,5,6-tetrahydropyrrolo[3,4-d]imidazol-2-yl)-5-(1-(3,5-dichloropyridin-4-yl)ethoxy)-1H-indazole] |
| – | 1.3 | 1.4 | 60.5 | C[C@@H](Oc1ccc2[nH]nc(-c3nc4c([nH]3)CN(C3CCN(S(C)(=O)=O)C3)C4)c2c1)c1c(Cl)cncc1Cl (stereo partly drawn) [Compound 39, 5-((R)-1-(3,5-Dichloropyridin-4-yl)ethoxy)-3-(5-(1-(methylsulfonyl)pyrrolidin-3-yl)-1,4,5,6-tetrahydropyrrolo[3,4-d]imidazol-2-yl)-1H-indazole] |
| 1.8 | 1.7 | – | 13.3 | CC(Oc1ccc2[nH]nc(-c3nc4c([nH]3)CN(S(=O)(=O)c3ccn(C)n3)C4)c2c1)c1c(Cl)cncc1Cl (centres unmarked) [Compound 20, 5-(1-(3,5-dichloropyridin-4-yl)ethoxy)-3-(5-((1-methyl-1H-pyrazol-3-yl)sulfonyl)-1,4,5,6-tetrahydropyrrolo[3,4-d]imidazol-2-yl)-1H-indazole] |
| – | 0.017 | 0.19 | 6.7 | C[C@@H](Oc1ccc2[nH]nc(-c3nc4c([nH]3)CN(C(=O)CN3CCC(C#N)C3)C4)c2c1)c1c(Cl)cncc1Cl (stereo partly drawn) [Compound 49, 1-(2-(2-(5-((R)-1-(3,5-dichloropyridin-4-yl)ethoxy)-1H-indazol-3-yl)-4,6-dihydropyrrolo[3,4-d]imidazol-5(1H)-yl)-2-oxoethyl)pyrrolidine-3-carbonitrile] |
| 2.2 | 1.2 | – | 19.6 | CC(Oc1ccc2[nH]nc(-c3nc4c([nH]3)CN(S(=O)(=O)c3cnn(C)c3)C4)c2c1)c1c(Cl)cncc1Cl (centres unmarked) [Compound 18, 5-(1-(3,5-dichloropyridin-4-yl)ethoxy)-3-(5-((1-methyl-1H-pyrazol-4-yl)sulfonyl)-1,4,5,6-tetrahydropyrrolo[3,4-d]imidazol-2-yl)-1H-indazole] |
| – | 0.084 | 0.33 | 11.1 | C[C@@H](Oc1ccc2[nH]nc(-c3nc4c([nH]3)CN(C(=O)CN3CCC(F)C3)C4)c2c1)c1c(Cl)cncc1Cl (stereo partly drawn) [Compound 48, 1-(2-(5-((R)-1-(3,5-Dichloropyridin-4-yl)ethoxy)-1H-indazol-3-yl)-4,6-dihydropyrrolo[3,4-d]imidazol-5(1H)-yl)-2-(3-fluoropyrrolidin-1-yl)ethan-1-one] |
| – | – | – | 99 | CCN1CCN(c2ccc(Nc3cc(N(C)C(=O)Nc4c(Cl)c(OC)cc(OC)c4Cl)ncn3)cc2)CC1 [Infigratinib, reference compound] |
